The values below come from PubChem BioAssay AID652053 (Broad Institute, 2013).

Where only a bound is given, the exact number is not on record here.

The assay deals with Huh7 psiCHECK-miR122 Renilla luciferase reporter, 48 h. Briefly: miR-122 inhibitors in Huh7 reporter cells, dose response, cell-based, Huh7 psiCHECK-miR122, Renilla luciferase, cherry-pick (AID 652053).
On to `Cc1cc(C(C)(C)C)cc(S(=O)(=O)NCCO)c1C`, for which the AC40 was 1.16 µM.

For the molecule `Cc1cc(C)c(C)c(S(=O)(=O)Nc2ccc(C(=O)N3CCCC3)cc2)c1C`, the AC40 was 2 µM.

`CCCNC(=O)NC[C@@H]1[C@@H](c2ccc(C3=CCCCC3)cc2)[C@H](CO)N1C(C)=O`: the AC40 was 2.47 µM.

Regarding `COc1ccc(S(=O)(=O)Nc2cc(C)ccc2OC)cc1C`, the AC40 is 3.63 µM.

As to `COc1ccc(-c2cc(C)no2)cc1S(=O)(=O)Nc1cccc(C)c1`, the AC40 was 0.83 µM.

As for `Cc1cc(C(C)(C)C)cc(S(=O)(=O)Nc2ccc(C(=O)O)cc2)c1C`, the AC40 was 9.72 µM.

On to `Cc1ccc(S(=O)(=O)Nc2c(C)ccc3nsnc23)cc1`, for which the AC40 was 17.6 µM.

Regarding `Cc1ccc(S(=O)(=O)Nc2cccc(S(=O)(=O)N3CCCC3)c2)cc1C`, the AC40 is 1.03 µM.

Regarding `Cc1cc(C)c(S(=O)(=O)NCCCn2ccnc2)cc1C`, the AC40 was 1.45 µM.

As to `Cc1ccc(NS(=O)(=O)c2cc(C(=O)NCCSc3ccc(C)cc3)ccc2C)cc1`, the AC40 was 4.89 µM.

With `COc1ccc(S(=O)(=O)Nc2ccc3c(c2)CC(=O)N([C@H](C)CO)C[C@H](C)[C@H](CN(C)Cc2ccc(C(=O)Nc4ccccc4N)cc2)O3)cc1`, the AC40 was 10.5 µM.

Turning to `Cc1cc(C)cc(NS(=O)(=O)c2ccc(F)cc2)c1`, the AC40 is 10.9 µM.

For the molecule `CCCCCNS(=O)(=O)c1cc2c3c(c1)CCC(=O)N3CCC2`, the AC40 was 4.75 µM.

Turning to `CCN(CC)c1ccc(NC(=O)c2ccccn2)cc1S(=O)(=O)Nc1ccccc1OC`, the AC40 is 4.42 µM.

As for `CCOc1ccc(NS(=O)(=O)c2ccc(NC(=S)NC(=O)CC(C)C)cc2)cc1`, the AC40 is 1.68 µM.

Turning to `COc1ccc(S(=O)(=O)Nc2ccc(-c3ccc4nnc(C)n4n3)cc2)c(OC)c1`, the AC40 is 4.03 µM.

In the case of `COC(=O)c1c(NC(=O)c2ccc(C)c(S(=O)(=O)Nc3ccccc3C)c2)sc2c1CCCC2`, the AC40 was less than 0.26 µM.

As to `Cc1cc(S(=O)(=O)NCC2CC2)c(Cl)cc1Cl`, the AC40 is 2.7 µM.

In the case of `CCNS(=O)(=O)c1ccc(NS(=O)(=O)c2cc(C)ccc2C)cc1`, the AC40 is 1.86 µM.

Consider `O=S(=O)(NCCc1ccncc1)c1cc(Br)ccc1F`, for which the AC40 was 2.66 µM.

With `Cc1cc(C(O)c2ncc(-c3ccccc3)[nH]2)ccc1F` (stereo not given), the AC40 was 19.2 µM.

Consider `S=C(NCC1CCCCC1)Nc1ccc(Oc2ccccc2)cc1`, for which the AC40 was 14.6 µM.

As to `O=S(=O)(Nc1ccc(C(O)(C(F)(F)F)C(F)(F)F)cc1)c1cccc2cccnc12`, the AC40 was 9.64 µM.

For `COc1ccccc1NS(=O)(=O)c1cc(NC(=O)c2cccnc2)ccc1N1CCCCC1`, the AC40 is less than 0.26 µM.

As to `O=C(NCc1cccc(Cl)c1)c1ccc(S(=O)(=O)Nc2cccc(C(F)(F)F)c2)cc1`, the AC40 is 22.5 µM.

`Cc1cccc(NS(=O)(=O)c2cccc(C(=O)N3CCCCCCC3)c2)c1`: the AC40 is 1.8 µM.

On to `CN1c2ccc(-c3ccccc3F)cc2[C@H]2[C@H](CCN2S(=O)(=O)c2ccccc2F)[C@H]1CO`, for which the AC40 was 2.4 µM.

Take `CC(C)(C)C(=O)Nc1cc(S(=O)(=O)Nc2ccc(Cl)cc2)ccc1Cl`: the AC40 was 2.74 µM.

In the case of `O=C(Nc1nc2ccc(Cl)cc2s1)c1ccco1`, the AC40 is 20.8 µM.

Regarding `C[C@H](CO)N1C[C@H](C)[C@@H](CN(C)C(=O)Nc2cccc3ccccc23)Oc2ccc(NC(=O)Nc3ccc(C(F)(F)F)cc3)cc2CC1=O`, the AC40 is 7.77 µM.

With `C[C@@H]1CN([C@H](C)CO)C(=O)Cc2cc(NC(=O)Nc3ccccc3)ccc2O[C@@H]1CN(C)C(=O)Nc1cccc2ccccc12`, the AC40 is 0.756 µM.

As for `COc1cc(OC)c(NS(=O)(=O)c2ccc(Cl)c(C(=O)OC(C)C(=O)N3CCCC3)c2)cc1Cl` (stereo not given), the AC40 was 8.08 µM.

For `CN1C(=O)c2cc(NC(=O)NCc3ccccc3)ccc2OC[C@@H]2O[C@H](CC(=O)NCC3CCCCC3)CC[C@@H]21`, the AC40 was 0.358 µM.

In the case of `C[C@@H]1CN([C@H](C)CO)C(=O)c2cccc(NC(=O)Nc3ccc(F)cc3)c2O[C@H]1CN(C)Cc1ccc(C(F)(F)F)cc1`, the AC40 was 1.51 µM.

`Cc1ccc(C)c(S(=O)(=O)NC(C)CCc2ccccc2)c1` (stereo not given): the AC40 is 3.81 µM.
